# Target: T1, Human M4 (Homo sapiens, UniProt P08173)
# T1 sequence (P08173 1-479): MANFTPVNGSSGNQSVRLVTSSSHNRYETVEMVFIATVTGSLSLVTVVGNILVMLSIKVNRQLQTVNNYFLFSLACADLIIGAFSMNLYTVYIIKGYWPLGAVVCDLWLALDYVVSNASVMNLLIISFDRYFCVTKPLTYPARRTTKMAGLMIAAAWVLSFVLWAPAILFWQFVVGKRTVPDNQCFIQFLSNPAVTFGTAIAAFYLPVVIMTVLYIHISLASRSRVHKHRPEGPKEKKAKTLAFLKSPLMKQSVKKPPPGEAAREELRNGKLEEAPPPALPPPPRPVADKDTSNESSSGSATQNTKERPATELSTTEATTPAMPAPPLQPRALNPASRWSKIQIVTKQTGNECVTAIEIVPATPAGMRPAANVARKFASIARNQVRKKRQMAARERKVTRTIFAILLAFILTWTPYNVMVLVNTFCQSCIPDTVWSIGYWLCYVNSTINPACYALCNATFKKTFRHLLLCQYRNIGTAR
# Assay: M4 cell-based functional assay (calcium mobilization)
# Parameters: expressed in transfected cells
# Details: for Emax at 30 µM: % ACh maximum at 30 μM; for EC50: CHO-K1 hM4-Gqi5 cells, calcium flux, increase in EC20 acetylcholine response
# Method: Human (h) and rat (r) M4 CDNAs, along with the chimeric G protein Gqi5, were transfected into Chinese hamster ovary (CHO-K1) cells purchased from the American Type Culture Collection using Lipofectamine2000. The transfected cells were subjected to selection antibiotic treatment to generate stable cell lines; G418 sulfate (1 mg/ml) for selecting M4 expressing cells and Hygromycin B (500 μg/mL) for selecting Gqi5 expressing cells. The resulting polyclones were further screened to obtain monoclones of hM4-Gqi5 and rM4-Gqi5 for compound screening assay. Stable monoclone cells were maintained in Ham's F-12 medium containing 10% heat-inactivated fetal bovine serum (FBS), 1× Antibiotic/Antimycotic, 20 mM HEPES, 500 μg/mL G418 sulfate, and 200 μg/mL Hygromycin B in 37° C. humidified incubators in the presence of 5% CO2.
# The high throughput assay was employed to measure receptor-induced mobilization of intracellular calcium to determine compound activity. Test compound was added to cells expressing the muscarinic receptors that were loaded with calcium sensitive fluorescent dye. After a ˜2.5 minute incubation period, a submaximal (EC20) concentration of acetylcholine was added, and the response measured. This kinetic assay allows for simultaneous screening and potency determination of multiple pharmacological modes of action including agonist and potentiator activity. CHO-K1 cells stably expressing muscarinic receptors were plated in growth medium lacking G418 and hygromycin at 15,000 cells/20 μL/well in Greiner 384-well black-walled, tissue culture (TC)-treated, clear-bottom plates (Greiner Bio-One). Cells were incubated overnight at 37° C. and 5% CO2. The next day, calcium assay buffer (Hank's balanced salt solution (HBSS), 20 mM HEPES, 2.5 mM Probenecid, 4.16 mM sodium bicarbonate (Sigma-Aldrich, St. Louis, MO)) was prepared to dilute compounds, agonists, and Fluo-4-acetomethoxyester (Fluo-4-AM), fluorescent calcium indicator dye. Compounds were serially diluted 1:3 into 10 point concentration response curves in DMSO using the Bravo Liquid Handler (Agilent, Santa Clara, CA), transferred to a 384 well daughter plates using an Echo acoustic liquid handler (Beckman Coulter, Indianapolis, Indiana), and diluted in assay Buffer to a 2× final concentration. The agonist plates were prepared using acetylcholine (ACh, Sigma-Aldrich, St. Louis, MO) concentrations for the EC20 and ECMAX responses by diluting in assay buffer to a 5× final concentration. The 2× dye solution (2.3 μM) was prepared by mixing a 2.3 mM Fluo-4-AM stock in DMSO with 10% (w/v) pluronic acid F-127 in a 1:1 ratio in assay buffer. Using a microplate washer (BioTek, Winooski, VT), cells were washed with assay buffer for 3 times to remove medium. After the final wash, 20 μL of assay buffer remained in the cell plates. Immediately, 20 μL of the 2× dye solution (final 1.15 μM) was added to each well of the cell plate using a Multidrop Combi dispenser (Thermo Fisher, Waltham, MA). After cells were incubated with the dye solutions for 45 min at 37° C. in the presence of 5% CO2, the dye solutions were removed and replaced with assay buffer using a microplate washer, leaving 20 μL of assay buffer in the cell plate.
# The prepared compound, agonist, and cell plates were placed inside the Functional Drug Screening System uCell (FDSS uCell, Hamamatsu, Japan) to measure the calcium flux.
# The triple add protocol was used to measure Ca kinetics; Compound, ACh for EC2O, and ACh for EC80 adds in an order. Briefly, after establishment of a fluorescence baseline for 2 seconds (excitation, 480 nm; emission, 530 nm), first add occurred by adding 20 μL of test compound to the cells, and the response was measured for 140 seconds. This is followed by second add; 10 μL (5×) of an EC20 concentration of ACh agonist was added to the cells, and the response of the cells was measured for 125 seconds. […]
smiles,measurement,value
"Cc1c(N2CCc3nc(C4CC4)sc3C2)nc2nn(C)c(=O)n2c1C [Compound 77, 7-(2-cyclopropyl-6,7-dihydrothiazolo[5,4-c]pyridin-5(4H)-yl)-2,5,6-trimethyl-[1,2,4]triazolo[4,3-a]pyrimidin-3(2H)-one]",Emax at 30 µM,121%
same,EC50,9 nM
"Cc1cc2nc(=O)ccn2nc1N1CCc2nc(Br)sc2C1 [Compound 50, 7-(2-bromo-6,7-dihydrothiazolo[5,4-c]pyridin-5(4H)-yl)-8-methyl-2H-pyrimido[1,2-b]pyridazin-2-one]",Emax at 30 µM,66%
same,EC50,521 nM
"Cc1c(C#N)nnc(N2CCc3nc(C4CC4)sc3C2)c1C [Compound 12, 6-(2-cyclopropyl-6,7-dihydrothiazolo[5,4-c]pyridin-5(4H)-yl)-4,5-dimethylpyridazine-3-carbonitrile]",Emax at 30 µM,76%
same,EC50,161 nM
"Cc1cc2nccnc2nc1N1CCc2nc(C3(C)CC3)sc2C1 [Compound 55, 2-(1-methylcyclopropyl)-5-(7-methylpyrido[2,3-b]pyrazin-6-yl)-4,5,6,7-tetrahydrothiazolo[5,4-c]pyridine]",Emax at 30 µM,76%
same,EC50,253 nM
"Cc1c(C#N)nnc(N2CCc3nc(C#N)sc3C2)c1C [Compound 13, 5-(6-cyano-4,5-dimethylpyridazin-3-yl)-4,5,6,7-tetrahydrothiazolo[5,4-c]pyridine-2-carbonitrile]",Emax at 30 µM,78%
same,EC50,1210 nM
"Cn1ccc2c(N3CCc4nc(Br)sc4C3)ncnc21 [Compound 27, 2-bromo-5-(7-methyl-7H-pyrrolo[2,3-d]pyrimidin-4-yl)-4,5,6,7-tetrahydrothiazolo[5,4-c]pyridine]",Emax at 30 µM,43%
same,EC50,> 10000 nM
"Cc1cc(C#N)cnc1N1CCc2nc(C(N)=O)sc2C1 [Compound 21, 5-(5-cyano-3-methylpyridin-2-yl)-4,5,6,7-tetrahydrothiazolo[5,4-c]pyridine-2-carboxamide]",Emax at 30 µM,98%
same,EC50,301 nM
"Cc1cc2nccnc2nc1N1CCc2nc(C(C)C)sc2C1 [Compound 64, 2-isopropyl-5-(7-methylpyrido[2,3-b]pyrazin-6-yl)-4,5,6,7-tetrahydrothiazolo[5,4-c]pyridine]",Emax at 30 µM,76%
same,EC50,119 nM
"Cc1cc2nc(C(=O)N3CC(C)(F)C3)cc(=O)n2nc1N1CCc2nc(Br)sc2C1 [Compound 45, 7-(2-bromo-6,7-dihydrothiazolo[5,4-c]pyridin-5(4H)-yl)-2-(3-fluoro-3-methylazetidine-1-carbonyl)-8-methyl-4H-pyrimido[1,2-b]pyridazin-4-one]",Emax at 30 µM,85%
same,EC50,752 nM
"Cc1nc2c(C)c(C)c(N3CCc4nc(Br)sc4C3)nn2c(=O)c1F [Compound 37, 7-(2-bromo-6,7-dihydrothiazolo[5,4-c]pyridin-5(4H)-yl)-3-fluoro-2,8,9-trimethyl-4H-pyrimido[1,2-b]pyridazin-4-one]",Emax at 30 µM,81%
same,EC50,47 nM
"Cc1cc2nc(C(=O)N3CC(C)C3)cc(=O)n2nc1N1CCc2nc(Br)sc2C1 [Compound 43, 7-(2-bromo-6,7-dihydrothiazolo[5,4-c]pyridin-5(4H)-yl)-8-methyl-2-(3-methylazetidine-1-carbonyl)-4H-pyrimido[1,2-b]pyridazin-4-one]",Emax at 30 µM,87%
same,EC50,1960 nM
"Cc1cc(C#N)cnc1N1CCc2nc(-c3cnn(C4CCC4)c3)sc2C1 [Compound 4, 6-(2-(1-cyclobutyl-1H-pyrazol-4-yl)-6,7-dihydrothiazolo[5,4-c]pyridin-5(4H)-yl)-5-methylnicotinonitrile]",Emax at 30 µM,54%
same,EC50,> 10000 nM
"Clc1ccc2ncnc(N3CCc4nc(Br)sc4C3)c2c1 [Compound 29, 2-bromo-5-(6-chloroquinazolin-4-yl)-4,5,6,7-tetrahydrothiazolo[5,4-c]pyridine]",Emax at 30 µM,96%
same,EC50,144 nM
"Cc1nc2c(s1)CN(c1ncc(C#N)cc1C)CC2 [Compound 15, 5-methyl-6-(2-methyl-6,7-dihydrothiazolo[5,4-c]pyridin-5(4H)-yl)nicotinonitrile]",Emax at 30 µM,87%
same,EC50,371 nM
"Cc1cc2nccnc2nc1N1CCc2nc(C(C)(C)C)sc2C1 [Compound 65, 2-(tert-butyl)-5-(7-methylpyrido[2,3-b]pyrazin-6-yl)-4,5,6,7-tetrahydrothiazolo[5,4-c]pyridine]",Emax at 30 µM,57%
same,EC50,1890 nM
"Cc1csc2ncnc(N3CCc4nc(Br)sc4C3)c12 [Compound 23, 2-bromo-5-(5-methylthieno[2,3-d]pyrimidin-4-yl)-4,5,6,7-tetrahydrothiazolo[5,4-c]pyridine]",Emax at 30 µM,82%
same,EC50,204 nM
"Cc1c(C#N)nnc(N2CCc3nc(Nc4ccccc4F)sc3C2)c1C [Compound 5, 6-(2-((2-fluorophenyl)amino)-6,7-dihydrothiazolo[5,4-c]pyridin-5(4H)-yl)-4,5-dimethylpyridazine-3-carbonitrile]",Emax at 30 µM,43%
same,EC50,> 10000 nM
"Cc1cc(-c2nc3c(s2)CN(c2ncc(C#N)cc2C)CC3)ccn1 [Compound 2, 5-methyl-6-(2-(2-methylpyridin-4-yl)-6,7-dihydrothiazolo[5,4-c]pyridin-5(4H)-yl)nicotinonitrile]",Emax at 30 µM,59%
same,EC50,612 nM
"Cc1c(N2CCc3nc(C4CC4)sc3C2)nc2n[nH]c(=O)n2c1C [Compound 72, 7-(2-cyclopropyl-6,7-dihydrothiazolo[5,4-c]pyridin-5(4H)-yl)-5,6-dimethyl-[1,2,4]triazolo[4,3-a]pyrimidin-3(2H)-one]",Emax at 30 µM,91%
same,EC50,5 nM
"Cc1c(N2CCc3nc(C4CC4)sc3C2)nc2nn(CC3CC3(F)F)c(=O)n2c1C (stereo not shown) [Compound 74, 7-(2-cyclopropyl-6,7-dihydrothiazolo[5,4-c]pyridin-5(4H)-yl)-2-((2,2-difluorocyclopropyl)methyl)-5,6-dimethyl-[1,2,4]triazolo[4,3-a]pyrimidin-3(2H)-one]",Emax at 30 µM,94%
same,EC50,7 nM
"Cc1cc2nc(C(=O)NCc3cncs3)cc(=O)n2nc1N1CCc2nc(Br)sc2C1 [Compound 42, 7-(2-bromo-6,7-dihydrothiazolo[5,4-c]pyridin-5(4H)-yl)-8-methyl-4-oxo-N-(thiazol-5-ylmethyl)-4H-pyrimido[1,2-b]pyridazine-2-carboxamide]",Emax at 30 µM,87%
same,EC50,418 nM
"Cc1c(N2CCc3nc(C4(C)CC4)sc3C2)nc2n[nH]c(=O)n2c1C [Compound 68, 5,6-dimethyl-7-(2-(1-methylcyclopropyl)-6,7-dihydrothiazolo[5,4-c]pyridin-5(4H)-yl)-[1,2,4]triazolo[4,3-a]pyrimidin-3(2H)-one]",Emax at 30 µM,97%
same,EC50,40 nM
"Cc1cn2c(=O)[nH]nc2nc1N1CCc2nc(C3CCC3)sc2C1 [Compound 66, 7-(2-cyclobutyl-6,7-dihydrothiazolo[5,4-c]pyridin-5(4H)-yl)-6-methyl-[1,2,4]triazolo[4,3-a]pyrimidin-3(2H)-one]",Emax at 30 µM,76%
same,EC50,13 nM

# From patent publication US12139498B1, “Positive allosteric modulators of the muscarinic acetylcholine receptor M4” (Vanderbilt University, priority 2023, dated 2024)
